This note sets out measurements from US6461841B2, “L-amino acid oxidase from Rhodococcus species” (Degussa AG, priority 2000, dated 2002).

The structures appear in SMILES notation. Like-named read-outs stand apart in the source and are kept apart here. Bounds are passed on as bounds.

One may read the Ki as the dissociation constant of the complex between target and ligand, obtained from inhibition or displacement.

In assay [1] the target is T1, L-amino acid oxidase from Rhodococcus opacus (Rhodococcus opacus, UniProt Q8VPD4).
T1 construct: made in house; host or cells: Rhodococcus opacus DSM 43250, the natural producer; purified from crude cell extract, not recombinant
T1 sequence (Q8VPD4 46-534): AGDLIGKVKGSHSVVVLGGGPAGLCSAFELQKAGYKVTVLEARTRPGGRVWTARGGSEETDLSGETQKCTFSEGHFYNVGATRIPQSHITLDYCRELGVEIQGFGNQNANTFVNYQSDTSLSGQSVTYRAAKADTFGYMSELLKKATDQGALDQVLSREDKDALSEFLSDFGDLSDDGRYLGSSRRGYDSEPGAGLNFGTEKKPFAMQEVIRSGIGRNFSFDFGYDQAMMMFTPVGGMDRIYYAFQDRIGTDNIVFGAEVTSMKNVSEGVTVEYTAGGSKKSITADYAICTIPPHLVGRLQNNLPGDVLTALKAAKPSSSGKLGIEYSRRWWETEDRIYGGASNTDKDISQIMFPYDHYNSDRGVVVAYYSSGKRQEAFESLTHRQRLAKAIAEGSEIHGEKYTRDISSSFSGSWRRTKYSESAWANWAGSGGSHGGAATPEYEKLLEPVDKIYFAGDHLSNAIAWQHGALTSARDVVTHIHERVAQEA
Description: Substrate spectrum and stereospecificity of L-amino acid oxidase. Format: biochemical. Particulars: relative to 10 mM L-alanine. The method, then: The transformation of a large number of natural and non-natural amino acids was investigated. The following test batch (1 mL) was used for this purpose: 10 mM enantiomer-pure amino acid (or 20 mM D,L-amino acid); 0.2 M TEA-HCl buffer, pH 7.6; 0.2 mg/mL odianisidine; 10 U/mL POX; L-amino acid oxidase solution in limiting amounts. The activity measurements were carried out by photometry at 436 nm and 30° C.
The stereospecificity of the L-amino acid oxidase was measured for several substrates (e.g. alanine, asparagine, glutamine, phenylalanine, methionine, leucine, ornithine, lysine, histidine), in that both the D-form and the L-form, as well as the racemate were used. In this connection, D-amino acids are not transformed in any case. The activities with the racemates were as high, for all the substrates, as for the pure L-amino acids in each instance. […] In the determination of the substrate spectrum, it is therefore also possible to use the D,L-form.
The measured activity values were indicated as relative values with reference to the activity with 10 mM L-alanine (Table 4). Weak activity was indicated with a + in the table.

In assay [2] the target is T1, L-amino acid oxidase from Rhodococcus opacus. Description: biochemical. The method, then: To determine the kinetic constants, the reaction speed of oxidation was studied at different concentrations of amino acid and for different L-amino acids, under the following conditions (tests in microtiter plates):
0.2 M TEA-HCl buffer, pH 7.6; 0.2 mg/mL o-dianisidine; 25 U/mL POX; L-amino acid oxidase in limiting amounts; varying concentrations of the different L-amino acids. Activity measurement was conducted by photometry at 450 nm and 30° C.
The kinetic constants Vmax.

Assay [3] has the same target. Description: Transformation of D,L-amino acid with L-amino acid oxidase, HPLC analysis of L- and D-form. Conditions: for concentration of the D-form during the reaction: 7 mM D,L-amino acid. The assay is classed as biochemical. On the procedure: […] The total volume of the batch was 1 mL. Samples (50 μL) were taken at regular intervals, and analyzed for the content of L- and D-phenylalanine, using HPLC. Directly after being taken, the samples were heated to 95° C. for 3 min, and then the precipitated protein was centrifuged off. 20 μL of the diluted top fraction were put into 180 μL 100 mM sodium borate buffer, pH 10.4, and mixed with 20 μL of a derivativization reagent (260 mM isobuturyl-L-cysteine (IBLC) and 170 mM ophthaldialdehyde (OPA) in 100 mM sodium borate buffer, pH 10.4).
Separation conditions of HPLC:
Column: RP-18, 250×4 mm, 5 Am, Kromasil (Phenomenex, Aschaffenburg, Germany)
Detection: fluorescence, Ex. 340 nm, Em. 440 nm
Flow agent A: 23 mM sodium acetate buffer; pH 6.5 adjusted with acetic acid
Flow agent B: acetonitrile:water (10:1.5)

The mark [4] stands for this setting: 10 mM enantiomer-pure amino acid, pH 7.6, 30° C., 436 nm.
[5] abbreviates: marked #: used in racemic form (20 mM D,L-amino acid).
Setting [6] is: marked *: poor solubility, 100 μL top fraction of saturated L-amino acid solution per batch.
Where [7] appears, read: 0.2 M TEA-HCl buffer, pH 7.6, 30° C., constant of the amino acid as substrate, read-out: Ki.

On to `N[C@@H](Cc1ccc(Cl)cc1)C(=O)O` (racemic) [4-chlorophenylalanine], for which the “Rel. activity (%)” value in assay [1] (setting [4]) is given as 9%.

Consider `N[C@@H](Cc1ccc(F)cc1)C(=O)O` (racemic) [4-fluorophenylalanine], for which the “Rel. activity (%)” value in assay [1] (setting [5]) stood at 25%.

For `N[C@@H](CCc1ccccc1)C(=O)O` (racemic) [Homophenylalanine], the “Rel. activity (%)” value in assay [1] (marked *#: racemic form, low concentration (top fraction of saturated solution)) came out at 50%.

With `CCCC[C@H](N)C(=O)O` (racemic) [Norleucine], the “Rel. activity (%)” value in assay [1] (setting [5]) turned out to be 73%.

In the case of `COC[C@H](N)C(=O)O` (racemic) [O-methyl serine], the “Rel. activity (%)” value in assay [1] (setting [5]) is listed as 99%.

As to `N[C@H](C(=O)O)C(O)c1ccccc1` (mixture of isomers) [β-Phenyl serine], the “Rel. activity (%)” value in assay [1] (setting [5]) was found to be 8%.

On to `NC1CCOC1=O` (stereo not drawn) [2-amino-4-butyrolactone], for which the “Rel. activity (%)” value in assay [1] (setting [4]) is 66%.

`CC(C)(C)CCC(N)C(=O)O` (stereo not drawn) [2-amino-5,5-dimethyl hexanic acid]: the “Rel. activity (%)” value in assay [1] (setting [4]) worked out at 44%.

For the compound `N[C@@H](Cc1ccccc1Cl)C(=O)O` [2-chlorophenylalanine], the “Rel. activity (%)” value in assay [1] (setting [4]) is listed as 24%.

As for `NCC(N)C(=O)O` (stereo not drawn) [2.3-diaminopropionic acid], the “Rel. activity (%)” value in assay [1] (setting [4]) is given as 71%.

Consider `NCCC(N)C(=O)O` (stereo not drawn) [2.4-diaminobutyric acid], for which the “Rel. activity (%)” value in assay [1] (setting [4]) worked out at 100%.

Regarding `N[C@@H](Cc1cccc2ccccc12)C(=O)O` [3-(1-naphthyl)alanine], the “Rel. activity (%)” value in assay [1] (setting [6]) is recorded as 109%.

Turning to `Nc1ccc(C[C@H](N)C(=O)O)cc1` [4-aminophenylalanine], the “Rel. activity (%)” value in assay [1] (setting [4]) was 16%.

On to `N[C@@H](Cc1ccc([N+](=O)[O-])cc1)C(=O)O` [4-nitrophenylalanine], for which the “Rel. activity (%)” value in assay [1] (setting [6]) came to 30%.

With `C[C@H](N)C(=O)O` [Alanine, L-alanine], the “Rel. activity (%)” value in assay [1] (setting [4]) is on record as 100%.

With `N=C(N)NCCC[C@H](N)C(=O)O` [Arginine], the Ki in assay [2] was found to be 5.42 mM. In addition, the “Rel. activity (%)” value in assay [1] (setting [4]) is listed as 70%.

Take `NC(=O)C[C@H](N)C(=O)O` [Asparagine]: in assay [1] (setting [4]), the “Rel. activity (%)” value was 97%.

Regarding `NC(=O)NCCC[C@H](N)C(=O)O` [Citrulline], the Ki in assay [2] (setting [7]) was determined as 20.6 mM. In addition, the “Rel. activity (%)” value in assay [1] (setting [4]) is 74%.

Turning to `N[C@@H](CSSC[C@H](N)C(=O)O)C(=O)O` [Cystine], the “Rel. activity (%)” value in assay [1] (setting [6]) was 104%.

`CC(C)C[C@@H](N)C(=O)O` [D-leucine]: the “concentration of the D-form during the reaction” value in assay [3] (35 μg/mL enzyme, pH 7.6) is reported as “remains constant”. Also, the ee value in assay [3] (after a reaction time of 20 min) was not below 99.2%.

For the compound `N[C@H](Cc1ccccc1)C(=O)O` [D-phenylalanine], the “concentration of the D-form during the reaction” value in assay [3] (35 μg/mL enzyme, pH 7.6) was “remains constant”. The ee value is not below 99.2% in assay [3] (after a reaction time of 30 min) and not below 99.5% in assay [3] (after a reaction time of 180 min).

`NC(=O)CC[C@H](N)C(=O)O` [Glutamine]: the “Rel. activity (%)” value in assay [1] (setting [4]) is 52%.

As for `N[C@@H](Cc1c[nH]cn1)C(=O)O` [Histidine], in assay [1] (setting [4]), the “Rel. activity (%)” value was found to be 36%.

Turning to `NC1CCSC1=O` (stereo not drawn) [Homocysteine thiolactone], the “Rel. activity (%)” value in assay [1] (setting [4]) is given as 23%.

`CC[C@H](C)[C@H](N)C(=O)O` [Isoleucine]: the “Rel. activity (%)” value in assay [1] (setting [4]) was 45%.

For the compound `CC(C)C[C@H](N)C(=O)O` [Leucine, L-leucine], the Ki in assay [2] (setting [7]) came out at 5.69 mM. Also, the “Rel. activity (%)” value in assay [1] (setting [4]) turned out to be 68%. Further, the “transformation of the L-form” value in assay [3] (7 mM D,L-leucine, during the first 20 min) was “almost completely transformed”.

`NCCCC[C@H](N)C(=O)O` [Lysine, L-lysine] returned a Ki in assay [2] of 63.7 mM. Also, in assay [1] (setting [4]), the “Rel. activity (%)” value is 55%.

The compound `CSCC[C@H](N)C(=O)O` [Methionine] came in with a Ki in assay [2] of 6.84 mM. Also, the “Vmax (U/mg)” value in assay [2] (0.2 M TEA-HCl buffer, pH 7.6, 30° C.) is reported as 6.43 U/mg. The “Rel. activity (%)” value in assay [1] (setting [4]) came to 72%.

Turning to `CC(=O)NCCCC[C@H](N)C(=O)O` [Nε-acetyllysine], the “Rel. activity (%)” value in assay [1] (setting [4]) was found to be 46%.

Compound `NCCC[C@H](N)C(=O)O` [Ornithine] displayed a Ki in assay [2] of 12.5 mM. In addition, the “Rel. activity (%)” value in assay [1] (setting [4]) is listed as 117%.

Take `N[C@@H](Cc1ccccc1)C(=O)O` [Phenylalanine, L-phenylalanine]: the Ki in assay [2] (setting [7]) was 5.29 mM. In addition, in assay [1] (setting [4]), the “Rel. activity (%)” value was 53%. Also, the “concentration in the course of the reaction” value in assay [3] (7 mM D,L-phenylalanine, 35 μg/mL enzyme, pH 7.6, originally 3.5 mM) was less than 0.01 mM.

As for `N[C@@H](CO)C(=O)O` [Serine], in assay [1] (setting [4]), the “Rel. activity (%)” value was 72%.

As for `N[C@@H](Cc1c[nH]c2ccccc12)C(=O)O` [Tryptophan], the “Rel. activity (%)” value in assay [1] (setting [4]) was determined as 12%.

As to `N[C@@H](Cc1ccc(O)cc1)C(=O)O` [Tyrosine], in assay [1] (setting [6]), the “Rel. activity (%)” value was found to be 54%.

In the case of `CC(C)[C@H](N)C(=O)O` [Valine, L-valine], in assay [1] (setting [4]), the “Rel. activity (%)” value is 32%.
